Residues, ends and D or L forms follow the SMILES beside them. *: point of attachment. Cbz = O=C(OCc1ccccc1)*
Tests used:
Ngn3 protein = Ngn3 protein stability and half-life in HepG2 cells, cycloheximide time course, Western blot; format: cell-based
From the text: I. Protein stability and half-life assessment of Ngn3 in HepG2 cells. HepG2 cells were transfected with pTRE2-Ngn3 and pCMV-rtTA, treated with Doxycycline for 24 hr, and on the subsequent day pre-exposed to the proteasomal inhibitor MG132 for 5 hr. At time t=0, protein synthesis was inhibited by cycloheximide (CHX). Western blot using anti-Ngn3 antibodies are shown; b-actin served as a control, and remains stable. MG132 treatment leads to Ngn3 protein accumulation at t=0, and strongly stabilizes the protein, which rapidly decays in non-treated cells. J. Experiment conducted similarly as in I, but CMV-driven versions of Notch1 and Notch2 intracellular domains (N1ICD, N2ICD respectively) (left), or dominant-negative mastermind-like1 (DN-MAML1) were co-transfected with pTRE2-Ngn3. The left-most blot is overexposed to reveal the lower level of accumulated Ngn3 protein in presence of N1ICD, N2ICD, and the loss of Ngn3 upon CHX treatment. The analysis was done 1 hr post CHX treatment. […] K. Mouse pancreatic E14.5 explants were subjected to short-term treatment of CHX (1 hr) and MG132 (5 hr pre, and post-culture) as indicated. Total protein was isolated and subjected to anti-Ngn3 Western blotting. Levels of Ngn3 increase in presence of MG132, and decrease in response to CHX. Ngn3 protein levels increase correspondingly in presence of DAPT, a condition where the protein remains stable (CHX+DAPT lane). L. Stability measurements of Ngn3 in the presence of various cellular regulatory proteins. The experiment was conducted as in I and J. Decay scans (right) provide a measure of the decay rate of Ngn3. In all cases, the t=0 Ngn3 levels prior to CHX treatment is paralleled by the relative half-life of the protein. Destabilizing conditions include N1ICD, N2ICD, and Hes1. Stabilizing conditions include DN-MAML1 and DAPT-treatment. […] Hes1 is able to destabilize Ngn3 in the presence of DN-MAML1.
While Hes1 is known to directly repress Ngn3 expression, this would be an insufficient explanation for the observed results in which Ngn3 was driven by a Pdx1-tTA;tetO governed system. […] As destabilization of other bHLH factors, including NGN, and hASH1 has been observed, which has also implicated Notch, we then tested if a similar mechanism might operate in pancreas. As a means to mechanistically address this question, we first determined if Ngn3 protein half-life was regulated by proteasomal activity. Using three different heterologous cell lines (HepG2, Hek293, and CHO) conditionally expressing Ngn3, we observed a rapid turnover of Ngn3 protein after cycloheximide (CHX) addition; conditions where the control protein, beta-Actin, remained stable (FIG. 34I and data not shown). […]

[1] = test system: E12.5 Ngn3 Delayed ON pancreas; test: Ngn3 Delayed ON pancreas (E12.5) explant culture 4 days with and without DAPT, immunofluorescence; format: cell-based, mouse; details: four days ex-vivo
From the text: D-K. Ngn3 Delayed ON pancreas (E12.5, doxycycline was provided at E7.5, E9.5 as in FIG. 2A) was isolated and subjected to 4 days of explant culture with and without DAPT as described in A,B. Immunofluorescence analyses of explant pancreas using select pancreatic markers, after 4 days in culture. D′: insert image showing the expression of glucagon.
Given that Dll1 and Hes1 were >2-fold increased in the E12.5 Ngn3 Delayed ON pancreas, we next asked to what degree Notch processing was also required for the enhanced Ngn3-mediated ductal cell formation in that model. Similar to above, microdissected E12.5 Ngn3 Delayed ON pancreas was cultured for four days ex-vivo with and without DAPT (FIG. 36D-K). In contrast to WT explants, Ngn3 Delayed ON pancreas developed in a quite similar manner as observed in-vivo; in addition to widespread ductal formation, glucagon-producing clusters were observed, and extremely few acinar cells were found (FIG. 36D, F, H). Similar results were obtained using staining for Hnf1β (data not shown). […] The Ngn3-mediated ductal cell formation was abrogated by DAPT treatment ([…]). […] We conclude that Notch signaling is required for both normal, as well as Ngn3-mediated, pancreatic ductal cell development, and that blocking this pathway promotes acinar and endocrine fates at the expense of ductal cells. Of note, at high levels of DAPT treatment, γ-secretase inhibition impacts endocrine subtype determination as well, and if a concomitant increase in Ngn3 protein is provided, the organ regains capacity for significant insulin-cell differentiation.

[2] = test system: mouse WT pancreatic explants (E12.5); test: Mouse WT pancreatic explants (E12.5) cultured 4 days with DAPT; staining and qRT-PCR; format: cell-based; details: for ductal cell development: 4 days
Experimental: […] Sections were stained against Mucin1, carboxypeptidase1 (CPA) and glucagon (Glu). C. qRT-PCR analysis of explants performed as in A, B. Pancreatic marker genes were assessed and fold-changes to WT explants treated with DMSO were calculated by DDct method, using GAPDH mRNA as internal standard.
Given that pancreatic ductal cells form in Ngn3 null mice, and because ductal genes have not been identified as direct Ngn3 targets, we set forth to determine if the cell-extrinsic mechanism involving Notch indeed was causal for the Ngn3 Delayed ON phenotype. We first tested if pancreatic ductal cell differentiation was dependent on Notch. We cultured WT pancreatic explants in the presence of DAPT (FIG. 35A, B, C). These experiments were based on E12.5 pancreas, as at that age, the majority of tip/trunk patterning has occurred, and cells are actively undergoing terminal fate decisions. These cultures developed significant numbers of Muc1+ ductal cells during culture in absence of DAPT (FIG. 35A), with a density exceeding that found in-vivo. Acinar cell development (CPA1+) proceeded in WT (FIG. 35A), albeit at a much reduced level compared to normal development. […] Given that Notch processing inhibition strongly affected cellular differentiation, we investigated this further by performing qRT-PCR on similar-type explants (FIG. 35C).

endogenous Ngn3 = test: Mouse pancreatic E14.5 explants treated with CHX, MG132, DAPT; anti-Ngn3 Western blotting; format: cell-based; details: E14.5 mouse pancreatic explants, MG132 5 hr
From the text: I. Protein stability and half-life assessment of Ngn3 in HepG2 cells. HepG2 cells were transfected with pTRE2-Ngn3 and pCMV-rtTA, treated with Doxycycline for 24 hr, and on the subsequent day pre-exposed to the proteasomal inhibitor MG132 for 5 hr. At time t=0, protein synthesis was inhibited by cycloheximide (CHX). Western blot using anti-Ngn3 antibodies are shown; b-actin served as a control, and remains stable. MG132 treatment leads to Ngn3 protein accumulation at t=0, and strongly stabilizes the protein, which rapidly decays in non-treated cells. J. Experiment conducted similarly as in I, but CMV-driven versions of Notch1 and Notch2 intracellular domains (N1ICD, N2ICD respectively) (left), or dominant-negative mastermind-like1 (DN-MAML1) were co-transfected with pTRE2-Ngn3. The left-most blot is overexposed to reveal the lower level of accumulated Ngn3 protein in presence of N1ICD, N2ICD, and the loss of Ngn3 upon CHX treatment. The analysis was done 1 hr post CHX treatment. […]
While Hes1 is known to directly repress Ngn3 expression, this would be an insufficient explanation for the observed results in which Ngn3 was driven by a Pdx1-tTA;tetO governed system. […] As a means to mechanistically address this question, we first determined if Ngn3 protein half-life was regulated by proteasomal activity. […]

[3] = test system: Forward differentiating hES cultures; test: Pan-CM two weeks then maturation medium with daily MG132 pulse, transcript analysis; format: cell-based, human
Experimental: To successfully differentiate an insulin producing cell a two stage approach was developed. Schematically represented in panel A, pluripotent cultures were treated with Pan-CM for two weeks followed by a switch to a maturation medium (abbreviated MM within panel B) composed of DMEM/F12 with 12 mM glucose supplemented with 5 uM DAPT, 0.5 uM Vit D3, 1% B27, 1 uM Alk 5 Inhibitor and 1 mM Sodium Propionate. In addition cultures were treated with the proteasome inhibitor MG132 at 10 uM for a 4 hour pulse daily for the length of the experiment. We have previously shown that MG132 mediated inhibition of protein degradation promotes sustained Ngn3 signaling resulting in increased endocrine differentiation. […] Substantial increases in several of the endocrine specific genes are observed.
Forward differentiating hES cultures were incubated for two weeks in the presence of Pan-CM at which time culture conditions were changed to a defined maturation medium in addition to being treated daily with MG132. Control cultures remained within Pan-CM for the entire duration of the experiment. […] Transcript levels of Slc30A8, a gene associated with the transport of zinc during the processing of insulin, were increased ˜200 fold when forward differentiating cultures were exposed to MG132. […] It is important to note that while the absolute Glucagon transcript level fold increase was greater than that of insulin, when comparing the effects of forward differentiating cultures treated with Mg132 as to those which were solely treated with Pan-CM there was an ˜5 fold greater increase in relative Glucagon transcript levels as compared to an ˜24 fold greater increase in Insulin transcript levels. […] A similar low increase was also noted for the intestinal specific transcripts Cdx2 and Gucy2c genes, with only an ˜15 and ˜30 fold increase over hES transcript levels.
Also it is important to note that while all of the transcripts assayed throughout this series of experiments were increased in the cultures treated with MG132 the increase in pancreas specific transcripts was always far greater than the increases observed in non-pancreas specific transcripts (i.e., transcripts representative of the liver and intestines).

[4] = test system: forward differentiating hES culture; test: Two stage protocol: Pan-CM 8 days then second stage medium with MG132, DAPT, forskolin, sodium propionate; transcript analysis; format: cell-based, human; details: 8 days Pan-CM then second stage medium
Experimental: As a means to optimize the differentiation of insulin producing cells a two stage protocol was used in which pluripotent cultures were incubated in the presence of Pan-CM for 8 days as a means of generating pancreatic precursors cellular population. The medium these cultures were incubated in were subsequently changed to a medium designed to enhance differentiation of a pancreatic precursor towards a beta-cell terminal fate. All second stage experiments were performed in a medium composed of DMEM/F12 containing 12 mM Glucose supplemented with 1% B27, 1% Pyruvate, 1 uM Alk5 Inh II, 500 ng/ml Noggin and 0.5 uM (1,25 OH2)-Vit D3.
Among the compounds assayed for the ability to increase insulin production in a forward differentiating culture was the proteosomal inhibitor MG132 which we used in the previous example to stabilize Ngn3 protein. We also included the gamma secretase inhibitor DAPT, which was shown in the previous example to greatly increase beta-cell formation in the developing embryonic pancreatic explant study. We also included the short fatty acid salt sodium propionate, which acts as an agonist of short-chain fatty acid receptors. We also included the adenylyl cyclase activator forskolin. We also included the nuclear hormone receptor agonist 1,25 (OH)2)-Vit D3, which binds to, and activates the VDR protein. We also used intermediate concentrations of glucose, shown by others to increase formation of insulin producing cells from pluripotent derivatives. These compounds were used individually or in combination (as outlined in FIG. 37 panel A) to increase insulin-producing endocrine cell formation in a short term Pan-CM treated forward differentiating hES culture system.

[5] = two weeks Pan-CM then maturation medium, MG132 daily

C[C@H](NC(=O)Cc1cc(F)cc(F)c1)C(=O)N[C@H](C(=O)OC(C)(C)C)c1ccccc1 [DAPT, N—[N-(3,5-Diflurophenacetyl-L-alanyl)]-S-phenylglycine t-Butyl Ester]
total Ngn3 protein levels and stability (Ngn3 protein; HepG2 cells, DAPT at 50 μM): increase in total Ngn3 protein levels | Ngn3-mediated ductal cell formation [1]: abrogated | Pdx1+/Ins+ endocrine cells [1]: numerous | acinar density (CPA1+ cells) [1]: much increased | glucagon-expressing cells [1]: correspondingly reduced | ductal cell development ([2]; 100 μM DAPT): fully abolished | Gcg expression ([2]; 100 μM DAPT, qRT-PCR): reduced | Ins1, Ins2 expression ([2]; 100 μM DAPT, qRT-PCR): further enhanced | ductal cell development ([2]; 25-50 μM DAPT): significantly reduced | Ngn3, NeuroD1, Nkx6.1 expression ([2]; qRT-PCR): dose-dependent increases | Sox9 expression ([2]; qRT-PCR): Sox9 expression was reduced | acinar gene expression (Cpa1, Cpa2, Ptf1a) ([2]; qRT-PCR): strongly promoted

CC(C)C[C@@H](C=O)NC(=O)[C@H](CC(C)C)NC(=O)[C@H](CC(C)C)NC(=O)OCc1ccccc1 [MG132, benzyl (S)-4-methyl-1-((S)-4-methyl-1-((S)-4-methyl-1-oxopentan-2-ylamino)-1-oxopentan-2-ylamino)-1-oxopentan-2-ylcarbamate] (Cbz-Leu-Leu-Leu-aldehyde)
half-life of Ngn3 (T1/2) (Ngn3 protein; HepG2 cells exposed to MG132, CHX time course): > 3 h | loss of endogenous Ngn3 following exposure to CHX (endogenous Ngn3): abrogated | AFP transcript increase [3]: ~85 fold | Albumin transcript increase [3]: ~50 fold | Cdx2 increase over hES transcript levels [3]: ~15 fold | Glucagon transcript increase compared to cultures solely treated with Pan-CM [3]: ~5 fold | Gucy2c increase over hES transcript levels [3]: ~30 fold | Insulin transcript increase compared to cultures solely treated with Pan-CM [3]: ~24 fold | effect of long incubations on the culture ([3]; forward differentiating culture): overall detrimental effect on the culture | Glucagon absolute relative level over hES levels [3, 5]: ~2000 fold | Insulin absolute relative level over hES levels [3, 5]: ~600 fold | Mafa relative increase over control conditions [3, 5]: ~200 fold | Pax4 relative increase over control conditions [3, 5]: ~300 fold | Slc30A8 transcript levels increase [3, 5]: ~200 fold | Glucagon transcript levels [4]: remaining approximately the same as controls | Hnf6 transcript increase [4]: ~90 fold | Insulin transcript levels increase over controls [4]: ~80 fold | Nkx6.1 transcript increase [4]: ~12.5 fold | Pdx1 transcript increase [4]: ~40 fold

B1: Ngn3: pro-endocrine bHLH factor, 214 amino acids (protein, UniProt Q9Y4Z2 1-214, looked up)
chain: MTPQPSGAPTVQVTRETERSFPRASEDEVTCPTSAPPSPTRTRGNCAEAEEGGCRGAPRKLRARRGGRSRPKSELALSKQRRSRRKKANDRERNRMHNLNSALDALRGVLPTFPDDAKLTKIETLRFAHNYIWALTQTLRIADHSLYALEPPAPHCGELGSPGGSPGDWGSLYSPVSQAGSLSPAASLEERPGLLGATFSACLSPGSLAFSDFL
modifications: full-length
notes: pro-endocrine bHLH factor, 214 amino acids
half-life of Ngn3 (T1/2) (Ngn3 protein; HepG2 cells co-expressing N1ICD or N2ICD): < 15 ′ | half-life of Ngn3 (T1/2) (Ngn3 protein; HepG2 cells, CHX time course, non-treated): ~30 ′
